Results published in patent publication US20240351997A1, “NOVEL PARP7 INHIBITOR AND USE THEREOF” (SHANGHAI QILU PHARMACEUTICAL RESEARCH AND DEVELOPMENT …, priority 2021, published 2024).

Assays:
[1] = In vivo pharmacokinetic assay in rats (intravenous injection and oral administration); settings: SD rats; for AUC / clearance / half-life / Vd / Cmax: male, rat, plasma; for Vd: read-out: Vss
Excerpt: (§1) III. In Vivo Pharmacokinetic Assay in Mice and Rats
(§2) The pharmacokinetic behavior of the compound of the present disclosure in plasma after a single intravenous injection and oral administration was studied using male C57BL/6 mice or SD male rats as experimental animals.
(§3) Healthy adult C57BL/6 mice or SD rats (3 mice or rats per group), male, supplied by Shanghai Jihui Laboratory Animal Care Co., Ltd. and Vital River Laboratory Animal Technology Co., Ltd.
(§4) Both the intravenous injection and oral administration groups consisted of 3 mice or rats. The intravenous injection was at a dose of 1 mg/kg and in a volume of 5 mL/kg; the oral administration was at a dose of 5 mg/kg and in a volume of 10 mL/kg. The vehicle for administration was 5% DMSO/5% Kolliphor HS 15/90% Saline.
(§5) 2.3 Experimental Equipment
(§6) The centrifuge was purchased from Eppendorf, and the pipette was purchased from Eppendorf.
(§7) After the animals were administered, 0.02 mL of blood was collected from the vein at 0.0833 (IV), 0.25, 0.5, 1, 2, 4, 8, and 24 hours, respectively, placed in an EDTA-K2 test tube, centrifuged at 4600 rpm for 5 minutes at 4° C. to separate the plasma, and stored at −80° C.
(§8) 1) 10 μL of plasma sample was precipitated by adding 200 μL of acetonitrile, vortexed to mix, and centrifuged for 15 minutes.
(§9) 2) The treated supernatant was diluted with water, and the concentration of the test compound was analyzed by LC/MS/MS.
(§10) • Liquid phase conditions: Shimadzu LC-30AD • Mass spectrometry conditions: AB Sciex API 5500 • Chromatographic column: Phenomenex Kinetex 2.6 μm C18 • Mobile phases: A: 5 mM ammonium acetate aqueous solution (containing 0.05% formic acid); B: acetonitrile (containing 0.1% formic acid); flow rate: 0.5 mL/min
(§11) 3. Experimental Results and Analysis
(§12) Pharmacokinetic parameters were calculated using WinNonlin 8.0, and the pharmacokinetic parameters for intravenous injection and oral administration in mice or rats are shown in Table 2 and Table 3 below: […]

PARP7 = PARP7 (Homo sapiens (Human), UniProt Q7Z3E1); test: In vitro enzymology experiment of PARP7 (enzymatic inhibition); type: biochemical
Outline: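 Histone-coated plate ADP-ribosylation format: compound preincubated 10 min at room temperature with preincubated (25 °C, 10 min) enzyme mixture; incorporated biotin detected by streptavidin-HRP and QuantaRed fluorescence (Ex550/Em620).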

[2] = In vivo pharmacokinetic assay in mice (intravenous injection and oral administration); settings: C57BL/6 mice; for AUC / clearance / half-life / Vd / Cmax: male, mouse, plasma; for Vd: read-out: Vss
Excerpt: as §1, §2, §3, §4, §5, §6, §7, §8, §9, §10, §11, §12

Chain of PARP7 (Q7Z3E1 whole entry): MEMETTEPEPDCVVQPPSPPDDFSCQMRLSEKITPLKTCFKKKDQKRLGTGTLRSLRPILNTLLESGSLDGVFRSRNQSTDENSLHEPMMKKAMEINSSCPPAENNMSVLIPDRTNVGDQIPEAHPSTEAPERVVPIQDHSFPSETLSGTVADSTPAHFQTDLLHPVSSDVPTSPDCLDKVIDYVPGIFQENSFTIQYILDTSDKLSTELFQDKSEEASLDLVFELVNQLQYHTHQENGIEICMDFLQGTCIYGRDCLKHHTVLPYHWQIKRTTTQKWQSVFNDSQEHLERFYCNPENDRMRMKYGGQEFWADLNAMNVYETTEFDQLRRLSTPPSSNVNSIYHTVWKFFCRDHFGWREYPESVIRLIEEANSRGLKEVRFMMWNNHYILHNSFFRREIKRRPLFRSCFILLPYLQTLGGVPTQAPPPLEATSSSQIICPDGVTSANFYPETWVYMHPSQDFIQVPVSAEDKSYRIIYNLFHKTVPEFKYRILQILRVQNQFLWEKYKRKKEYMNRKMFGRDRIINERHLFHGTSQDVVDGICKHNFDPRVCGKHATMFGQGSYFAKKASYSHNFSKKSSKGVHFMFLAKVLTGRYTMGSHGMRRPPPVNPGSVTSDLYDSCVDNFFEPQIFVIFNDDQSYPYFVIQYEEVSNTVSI

Row | F ([1]; oral administration, 5 mg/kg) | AUC ([1]; intravenous injection, 1 mg/kg) | clearance ([1]; intravenous injection, 1 mg/kg) | half-life ([1]; intravenous injection, 1 mg/kg) | Vd ([1]; intravenous injection, 1 mg/kg) | AUC ([1]; oral administration, 5 mg/kg) | Cmax ([1]; oral administration, 5 mg/kg) | IC50 (PARP7) | F ([2]; oral administration, 5 mg/kg) | AUC ([2]; intravenous injection, 1 mg/kg) | clearance ([2]; intravenous injection, 1 mg/kg) | half-life ([2]; intravenous injection, 1 mg/kg) | Vd ([2]; intravenous injection, 1 mg/kg) | AUC ([2]; oral administration, 5 mg/kg) | Cmax ([2]; oral administration, 5 mg/kg) | Compound
1 | 35% | 633 ng·h/mL | 28.3 mL/min/kg | 3.5 h | 3.3 L/kg | 1060 ng·h/mL | 434 ng/mL | 0.53 nM | 52% | 2570 ng·h/mL | 6.67 mL/min/kg | 4.2 h | 1.5 L/kg | 6760 ng·h/mL | 3750 ng/mL | C[C@@H](Cc1c[nH]c(=O)c(C(F)(F)F)c1)OC(=O)N1CCN(c2ncc(C(F)(F)F)cn2)CC1 (single isomer, unassigned) [Example 35]
2 | 77% | 978 ng·h/mL | 16.7 mL/min/kg | 1.9 h | 1.9 L/kg | 3830 ng·h/mL | 809 ng/mL | 0.78 nM | – | – | – | – | – | – | – | C[C@@H](Cc1c[nH]c(=O)c(C(F)(F)F)c1)OC(=O)N1CCN(c2ncc(C(F)(F)F)cn2)[C@@H](C)C1 [Example 93, (S)-1-(6-Oxo-5-(trifluoromethyl)-1,6-dihydropyridin-3-yl)propan-2-yl (S)-3-methyl-4-(5-(trifluoromethyl)pyrimidin-2-yl)piperazine-1-carboxylate]
3 | 99% | 1060 ng·h/mL | 15 mL/min/kg | 2.3 h | 2.1 L/kg | 5380 ng·h/mL | 1310 ng/mL | 0.38 nM | 72% | 8100 ng·h/mL | 1.67 mL/min/kg | 6.3 h | 0.6 L/kg | 29600 ng·h/mL | 8490 ng/mL | C[C@@H]1CN(c2ncc(C(F)(F)F)cn2)CCN1C(=O)OCCc1c[nH]c(=O)c(C(F)(F)F)c1 [Example 109, 2-(6-Oxo-5-(trifluoromethyl)-1,6-dihydropyridin-3-yl)ethyl (R)-2-methyl-4-(5-(trifluoromethyl)pyrimidin-2-yl)piperazine-1-carboxylate]
4 | 47% | 5740 ng·h/mL | 3.33 mL/min/kg | 4.7 h | 0.9 L/kg | 13800 ng·h/mL | 2350 ng/mL | 1.8 nM | 80% | 10400 ng·h/mL | 1.5 mL/min/kg | 6.1 h | 0.6 L/kg | 42200 ng·h/mL | 9310 ng/mL | O=C(OCCc1c[nH]c(=O)c(C(F)(F)F)c1)N1CCN(c2ncc(C(F)(F)F)cn2)CC1 [Example 3, 2-(6-Oxo-5-(trifluoromethyl)-1,6-dihydropyridin-3-yl)ethyl 4-(5-(trifluoromethyl)pyrimidin-2-yl)piperazine-1-carboxylate]
